The text below walks through data of patent US11447504B2, “Macrocyclic chlorine substituted indole derivatives” (Bayer Aktiengesellschaft, priority 2017, dated 2022).

Where a name gives a salt, the structure may show the parent alone. Read-outs that look alike come from different tables or passages of the source.

In test [1] the test system is SUDHL5. The test is described as follows: Antiproliferation assay 7, SUDHL5. Format: cell-based. As to conditions: SUDHL5 cells, CellTiter-Glo, read-out: Antiproli SUDHL5 IC50 (median). The method in brief: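 Cells were exposed to compound for 72 hours at 37° C. Viability was measured by CellTiter-Glo luminescence. A day 0 plate read at the start served as the time-zero reference.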

Another test has as its system SUDHL10. In words: Induction of caspase-3/7 activity (Assay 4), SUDHL10. The class given is cell-based. The note with it: SUDHL10 cells. The method in brief:
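SUDHL10 DLBCL cells treated with compounds for 3 hours at 37 °C in a humidified incubator. Caspase-3/7 activity read with Caspase-Glo 3/7 luminescent reagent. Medium-only background subtracted from all values.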

For test [2], the system named is SUDHL5. In words: Induction of caspase-3/7 activity (Assay 4), SUDHL5. Format: cell-based. The note with it: SUDHL5 cells. The method in brief: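 DLBCL cells treated with compounds for 3 hours at 37° C. Caspase-3/7 activity measured by Caspase-Glo 3/7 luminescence, with medium-only background subtracted.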
A further test has as its target BCL-2 (Homo sapiens (Human), UniProt P10415). The test is described as follows: Protein-protein interaction assay BCL-2/Bad BH3 peptide (BCL-2 Assay, TR-FRET). The class given is binding. As to conditions: read-out: BCL-2 Assay IC50 (median). In a few lines: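 His-BCL-2 pre-equilibrated with compound 10 min at 22° C., then incubated with Bad BH3 peptide 1 h at 22° C. in dark and overnight at 4° C.; TR-FRET ratio read.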

Where [3] appears, read: 3 hours, Caspase-Glo 3/7, read-out: Caspase SUDHL10 EC50 (median).
The mark [4] stands for this setting: 3 hours, Caspase-Glo 3/7, read-out: Caspase SUDHL5 EC50 (median).

BCL-2, sequence (P10415 other isoform, or with tags, fused parts or gaps): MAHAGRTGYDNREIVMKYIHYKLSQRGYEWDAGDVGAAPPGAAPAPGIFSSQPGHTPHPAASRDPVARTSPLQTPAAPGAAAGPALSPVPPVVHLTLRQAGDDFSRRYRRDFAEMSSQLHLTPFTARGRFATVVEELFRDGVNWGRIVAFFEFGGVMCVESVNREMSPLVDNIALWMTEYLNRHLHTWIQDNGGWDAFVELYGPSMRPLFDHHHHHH

Take `Cc1c2c(nn1C)N(C)CCCCCn1c(C(=O)O)c(CCCOc3cccc4ccccc34)c3ccc(Cl)c-2c31` (racemic) [Example 71, (rac)-4-chloro-2,3,15-trimethyl-7-{3-[(naphthalen-1-yl)oxy]propyl}-10,11,12,13,14,15-hexahydro-2H-pyrazolo[4′,3′:4,5][1,6]diazacycloundecino[3,2,1-hi]indole-8-carboxylic acid]: the half-maximal inhibitory concentration (IC50) is 2000 nM in the test with SUDHL5 [1] (Homo sapiens, SU-DHL-5, 72 h) and greater than 20000 nM at BCL-2. Further, the EC50 in the test with SUDHL10 (Homo sapiens, SU-DHL10, 3 h, Caspase-Glo 3/7, read-out: Caspase SUDHL10 EC50 (median)) was 1800 nM; in the test with SUDHL5 [2] (Homo sapiens, SU-DHL-5, 3 h, Caspase-Glo 3/7, read-out: Caspase SUDHL5 EC50 (median)) it was 690 nM.
In the case of `Cc1c2c(nn1C)N(C)CCCCCn1c(C(=O)O)c(CCCOc3cccc4cc(F)ccc34)c3ccc(Cl)c-2c31` (racemic) [Example 74, (rac)-4-chloro-7-{3-[(6-fluoronaphthalen-1-yl)oxy]propyl}-2,3,15-trimethyl-10,11,12,13,14,15-hexahydro-2H-pyrazolo[4′,3′:4,5][1,6]diazacycloundecino[3,2,1-hi]indole-8-carboxylic acid], the IC50 was determined as 810 nM in the test on SUDHL5 [1] (72 hours) and 19000 nM on BCL-2. Besides, the EC50 came out at 1000 nM with SUDHL10 (setting [3]) and 710 nM in the test with SUDHL5 [2] (setting [4]).
For the compound `CCc1c2c(nn1C)N(C)CCCCCn1c(C(=O)O)c(CCCOc3cccc4cc(F)ccc34)c3ccc(Cl)c-2c31` (single isomer, unassigned; enantiomer 1) [Example 78, 4-chloro-3-ethyl-7-{3-[(6-fluoronaphthalen-1-yl)oxy]propyl}-2,15-dimethyl-10,11,12,13,14,15-hexahydro-2H-pyrazolo[4′,3′:4,5][1,6]diazacycloundecino[3,2,1-hi]indole-8-carboxylic acid-N-ethylethanamine Salt—Enantiomer 1], the IC50 with SUDHL5 [1] (Homo sapiens, SU-DHL-5, 72 h) is 2300 nM; on BCL-2, greater than 20000 nM. Moreover, the figures for the EC50 in the test on SUDHL10 (setting [3]) and with SUDHL5 [2] (setting [4]) were 320 nM and 400 nM, respectively.
As to `Cc1c2c(nn1C)N(C)CCCCCn1c(C(=O)O)c(CCCOc3cccc4cc(F)ccc34)c3ccc(Cl)c-2c31` [Example 75, (+)-4-chloro-7-{3-[(6-fluoronaphthalen-1-yl)oxy]propyl}-2,3,15-trimethyl-10,11,12,13,14,15-hexahydro-2H-pyrazolo[4′,3′:4,5][1,6]diazacycloundecino[3,2,1-hi]indole-8-carboxylic acid-N-ethylethanamine salt], the IC50 in the test with SUDHL5 [1] (72 hours) stood at 520 nM; on BCL-2, 19000 nM. For the same compound, the 50% effective concentration (EC50) in the test on SUDHL10 (setting [3]) turned out to be 740 nM; in the test on SUDHL5 [2] (setting [4]), 330 nM.
